Measurements published in patent US20230233583A1, “USE OF PHYTOCANNABINOIDS FOR TREATING MULTIPLE MYELOMA” (priority 2020, published 2023).

Experiments:
[1] = system: MM cell lines SKO, U266 and RPMI; experiment: Alkaline Comet assay; assay type: cell-based, human; settings: 48 hrs, CBG, CBN, CBDV 25 μM, CBC 75 μM
Experimental: Damage to cellular DNA of the cell lines SKO (upper images in each of FIGS. 21-24), U266 (middle images in each of FIGS. 21-24) and RPMI (lower images in each of FIGS. 21-24) due to exposure to CBG (25 μM; FIG. 21), CBC (75 μM; FIG. 22), CBN (25 μM; FIG. 23) and CBDV (25 μM; FIG. 24) were assessed using the Comet assay.
Alkaline Comet Assay: U266, SKO and RPMI myeloma cell lines were plated in 6-well plates (4×10^4 cell/well) one day before treatment exposure. Semi-confluent cultures were exposed for 48 hrs with 25 μM of CBG, CBN or CBDV or 75 μM of CBC. Controls, treated with vehicle, were included in all series. The Comet assay was performed under alkaline conditions following the ABCAM™ protocol. Briefly, after exposure to the phytocannabinoid, the cells were incubated for 48 hrs in Roswell Park Memorial Institute (RPMI) medium. Then the cells were resuspended in 1×PBS and added to 75 μL of molten (37° C.) 0.5% low-melting-point agarose gel to achieve a cell concentration of 1×10^5 cells/mL. The agarose was pipetted onto the Comet slides. Slides were stored in the dark at 4° C. for 10 min before adding pre-chilled lysis buffer for 45 min. The slides were immersed in freshly prepared alkaline solution (0.25 M NaOH containing […] EDTA, pH 12.6) for 30 min at room temperature. Slides were then removed and washed twice with alkaline solution for 5 min. Gel electrophoresis was performed at 1 V/cm for 30 min (running amperage 3-5 mA with the distance between the two electrodes of 25 cm). The Comet slides were washed with 70% ethanol for 5 min and air-dried for one hour at room temperature. 100 μL of diluted SYBR™ Green solution was placed onto each dried agarose circle. The slides were then read with a fluorescence microscope (LEIKA).
Phytocannabinoids induce necrotic cell death in MM cell lines: To evaluate the cytotoxic mechanism induced by the phytocannabinoids, MM cell lines were treated daily with a cytotoxic dose for each phytocannabinoid (CBG: 25 μM; CBC 75 μM; CBN 25 μM; CBDV 25 μM) for 48 hours and then Annexin-V/PI cell positivity was evaluated by FACS analysis. The results evidenced that all of the phytocannabinoids induced necrotic cell death but had different efficacies (FIGS. 5-16). To confirm the necrotic cell death mechanism, MM cell lines were treated as above and DNA damage was evaluated by H2AX (a marker to examine the DNA damage produced and the subsequent repair of the DNA lesion) Western blot analysis and Comet assay (permits the analysis of DNA damage in single cell preparations). The result confirmed the DNA damage induced by the phytocannabinoid analysed. […]

SKO = experiment: MTT cytotoxicity assay in SKO MM cell line; settings: for IC50: Homo sapiens, 72 h, read-out: IC50 (μM) ± S.D.; for % VIABILITY ± S.D.: SKO, daily, 72 hours, vs vehicle
Experimental: (§1) MTT cytotoxicity assay: MM cell lines (4×10^4 cells/ml) were seeded in 96-well plates, in a final volume of 100 μl/well. After 24 hours, CBG, CBC, CBN, CBDV alone and in combination or vehicle were added at different concentrations, for 72 hours. At least six replicates were used for each treatment. At the indicated time point, cell viability was assessed by adding 0.8 mg/ml of 3-[4,5-dimethylthiazol-2-yl]-2,5 diphenyl tetrazolium bromide (MTT) (Sigma-Aldrich) to the media. After 3 hours, the plates were centrifuged, the supernatant was removed, and the pellet was solubilized with 100 μl/well dimethyl sulfoxide (DMSO). The absorbance of the samples against a background control (medium alone) was measured at 570 nm using an ELISA reader microliter plate (BioTek™ Instruments, Winooski, Vt., USA).
(§2) Cells were treated with different doses of CBG, CBC, CBN and CBDV (up to 100 μM) and percentage of cell viability was evaluated by the MTT assay.
(§3) The cannabinoids were administered daily for 72 hours, as in previous experiments at the desired doses. Each combination was evaluated in six wells and in two separate experiments. MTT assay was used to analyze the cell cytotoxicity. The values in the tables are represented as % of cell viability compared to vehicle-treated cells.

U266 [2] = experiment: Invasion assay in co-culture of HuOB and U266; assay type: cell-based, human; settings: 24 hours; for AVERAGE OF CELLS/square (MM cells that invaded the Matrigel): U266 + HuOB co-culture, CBG, CBC, CBN 12.5 μM, CBDV 6.25 μM or 25 μM and 12.5 μM, untreated U266 + HuOB 14.2 ± 0.9; for effect on MM cell invasion, in words: U266 in co-culture with HuOB
Experimental: Invasion assay: HuOB cells (1.5×10^4) were plated on the surface of Matrigel in a BioCoat™ Matrigel® Invasion Chamber, 8.0 μm PET Membrane (Coming®, cod. 354480) and incubated for two days. After, U266 and RPMI (2.5×10^4) were pre-stained with Calcein (1 μM) for two hours, then treated with CBG (12.5 μM), CBC (12.5 μM), CBN (12.5 μM) and CBDV (6.25 μM) and added in the chambers. MM cells with HuOB, untreated, were used as invasion positive control, MM cells without HuOB cells were used as negative control. After 24 hours, the number of MM cells that invaded the Matrigel were analysed via fluorescent microscope. Eight 10× sections images were counted for each chamber.
Invasion assay in co-culture of HuOB and MM cell lines: This study evaluated the effect of phytocannabinoids in reducing the invasion of MM cell lines toward HuOB. HuOB were plated on the surface of Matrigel in the BioCoat™ Matrigel® Invasion Chamber, 8.0 μm PET Membrane (Corning®, cod. 354480) and incubated for two days. After, U266 or RPMI were pre-stained with Calcein (10 μM) for two hours, then treated with CBG (25 μM), CBC (25 μM), CBN (25 μM) and CBDV (12.5 μM) and added in the chambers. MM cells with HuOB, untreated, were used as an invasion positive control, MM cells without HuOB cells were used as a negative control. After 24 hours, the number of MM cells that invaded the Matrigel were analysed via fluorescent microscope. Eight 10× sections images were counted for each chamber.

U266 [3] = experiment: MTT cytotoxicity assay in U266 MM cell line; settings: for IC50: Homo sapiens, U-266, 72 h, read-out: IC50 (μM) ± S.D.; for % VIABILITY ± S.D.: daily, 72 hours, vs vehicle
Experimental: as §1, §2, §3

[4] = single phytocannabinoid 12.5 μM
[5] = U266, single phytocannabinoid 12.5 μM
[6] = U266, single phytocannabinoid 25 μM

| Compound | DNA damage by Comet assay, in words [1] | IC50 (SKO) | % VIABILITY ± S.D. (SKO; [4]) | % VIABILITY ± S.D. (SKO; single phytocannabinoid 25 μM) | AVERAGE OF CELLS/square (MM cells that invaded the Matrigel) (U266 [2]) | effect on MM cell invasion, in words (U266 [2]) | IC50 (U266 [3]) | % VIABILITY ± S.D. (U266 [3]; [5]) | % VIABILITY ± S.D. (U266 [3]; [6]) |
| --- | --- | --- | --- | --- | --- | --- | --- | --- | --- |
| CCCCCc1cc(O)c2c(c1)OC(C)(C)c1ccc(C)cc1-2 [CBN, 6,6,9-trimethyl-3-pentylbenzo[c]chromen-1-ol] | induce DNA damage | 28.5 ± 2.2 µM | 89.2 ± 5.9% | 60.6 ± 3.8% | 7.0 ± 0.2 CELLS/square | higher activity | 26.5 ± 1.8 µM | 89.6 ± 6.6% | 61.1 ± 4.8% |
| C=C(C)[C@@H]1CCC(C)=C[C@H]1c1c(O)cc(CCC)cc1O [CBDV, 2-[(1R,6R)-3-methyl-6-prop-1-en-2-ylcyclohex-2-en-1-yl]-5-propylbenzene-1,3-diol] | induce DNA damage | 26.5 ± 2.1 µM | 82.1 ± 5.2% | 54.6 ± 4.4% | 11.2 ± 1.1 CELLS/square |  | 26.7 ± 1.3 µM | 88.6 ± 7.2% | 76.2 ± 6.5% |
| CCCCCc1cc(O)c(C/C=C(\C)CCC=C(C)C)c(O)c1 [CBG, 2-[(2E)-3,7-dimethylocta-2,6-dienyl]-5-pentylbenzene-1,3-diol] | induce DNA damage | 35 ± 1.8 µM | 105.4 ± 4.4% | 84.6 ± 5.5% | 3.2 ± 0.2 CELLS/square | higher activity | 35.9 ± 2.2 µM | 97.4 ± 6.5% | 87.7 ± 5.8% |
| CCCCCc1cc(O)c2c(c1)OC(C)(CCC=C(C)C)C=C2 (stereo not shown) [CBC, 2-methyl-2-(4-methylpent-3-enyl)-7-pentylchromen-5-ol] | induce DNA damage | 69.7 ± 3.5 µM | 96.5 ± 6.7% | 94.3 ± 6.3% | 12.5 ± 1.1 CELLS/square |  | 78.8 ± 3.4 µM | 106.2 ± 3.5% | 101.2 ± 7.2% |
